Assays:
[1] = target: T1, rat GABAA receptors α3β2γ2 (Rattus norvegicus, UniProt P18508+P20236); assay: Stimulation of GABA (EC3-5)-elicited currents in Xenopus oocytes, two-electrode voltage clamp, α3β2γ2; assay type: cell-based
T1 construct: expressed in transfected cells; host or cells: Xenopus laevis oocytes, cRNA microinjected
Description: (§1) 7-Chloro-3-(5-dimethylaminomethyl-[1,2,4]oxadiazol-3-yl)-5methyl-4,5-dihydro-imidazol[1,5,-a][1,4]benzodiazepine-6-one was used to test the effects of the compound of formula (II): […]
(§2) Similar procedures were chosen as for the investigation of other GABAA receptor subunit specific substances (e.g., Baur et al., 2005; Mol. Pharmacol. 68, 787-792).
(§3) Lobes of the ovary containing the follicles were obtained by surgical procedures from female Xenopus laevis. Follicles were singled out using a platinum loop. Fifty nL of cRNA solution at a ratio of αx:β2:γ2 of 1:1:5 (3.3-10 nM αx (x=1,2,3,5); 3.3-10 nM β2; 16.7-50 nM γ2) (Boileau et al., 2002; Neuropharmacology 43, 695-700) were microinjected into Xenopus follicles. Several hours after microinjection the follicles were freed of follicular layers and adhering connective tissue by a collagenase/hypertonic shock procedure (Sigel, 1987; J. Physiol.(Land) 386, 73-90). Oocytes were kept at constant 18° C. until measurement (1-4 days) in a modified Barth solution (88 mM NaCl, 1 mM KCl, 2.4 mM NaHCO3, 10 mM Hepes-NaOH (pH 7.5), 0.82 mM MgSO4×7H2O, 0.34 mM Ca(NO3)2×4H2O, 0.41 mM CaCl2×2H2O, 100 U Penicillin/mL, 100 μg Streptomycin/mL, sterile filtered).
(§4) Currents were measured using a home-built amplifier in combination with a xy-recorder or were digitized using a MacLab/200 (AD Instruments) and stored on a computer. Xenopus oocytes were voltage clamped using the two-electrode voltage clamp technique (electrode resistance about 0.8 MΩ) at −80 mV. The medium contained 90 mM NaCl, 1 mM KCl, 1 mM MgCl2, 1 mM CaCl2, 10 mM Na-Hepes (pH 7.4) and 0.5% DMSO.
(§5) GABA was applied for 20-50 seconds without or in combination with other drugs and a washout period of 4 minutes was allowed to ensure full recovery from desensitization, which was experimentally determined. The perfusion solution (6 mL/min) was applied through a glass capillary with an inner diameter of 1.35 mm, the mouth of which was placed about 0.4 mm from the surface of the oocyte. The rate of solution change under our conditions has been estimated 70% within less than 0.5 s (Sigel et al., 1990; Neuron 5, 703-711). The entire perfusion system and the assay chamber were cleaned between drug applications by washing with DMSO.
(§6) Data is given as mean±SD, except in the figures where data is shown for clarity as mean±SEM. Current stimulation was calculated as follows: stimulation (%)=((I(GABA+modulator)−I(GABA))/I(GABA))×100%, where I is the current amplitude. Where indicated, the stimulation was standardized to the stimulation by 1 μM diazepam (100%). To obtain FIGS. 1-4, values for current stimulation obtained at a given concentration of modulator at a given subunit combination were averaged. The data points were fitted with the equation stimulation=efficacy/(1+(potency/concentration of modulator)). The values given in the Tables (Summary) are obtained by fitting individual curves and subsequently averaging efficacy and potency.
(§7) Concentration response curves were also performed with oocytes expressing α2β2γ2, α3β2γ2, or α5β2γ2, after establishing the optimal concentration range as indicated above. […] Averaged data of the individual curves summarizing the effects of the compound of formula (II) are shown below for unstandardized and standardized stimulation.
(§8) Concentration response curves were also performed with oocytes expressing α2β2γ2, α3β2γ2, or α5β2γ2.
(§9) Current stimulation by diazepam was determined in each batch of oocytes as follows. GABA (EC3-5) was applied until a stable response was obtained. Subsequently, GABA was applied in combination with 1 μM diazepam.

[2] = target: T2, rat GABAA receptors α2β2γ2 (Rattus norvegicus, UniProt P18508+P23576); assay: Stimulation of GABA (EC3-5)-elicited currents in Xenopus oocytes, two-electrode voltage clamp, α2β2γ2; assay type: cell-based
T2 construct: expressed in transfected cells; host or cells: Xenopus laevis oocytes, cRNA microinjected
Description: as §1, §2, §3, §4, §5, §6, §7, §8, §9

[3] = Example 2: single and repeat dose pharmacokinetic, safety and pharmacodynamic study in healthy volunteers; assay type: in vivo; conditions: human
Method: A single and repeat dose pharmacokinetic safety and pharmacodynamic study of the effects of the compound of formula (II) was conducted using healthy volunteers. The compound of formula (II) was administered orally in 1 mg, 1.5 mg, 2 mg and 2.5 mg doses via a hard gelatine capsule containing the compound in powder form.

[4] = GABA EC3-5, mean±SD of individually fitted curves, read-out: Potency
[5] = standardized to stimulation by 1 μM diazepam (100%)
[6] = unstandardized current stimulation

T2 sequence (P23576 29-451): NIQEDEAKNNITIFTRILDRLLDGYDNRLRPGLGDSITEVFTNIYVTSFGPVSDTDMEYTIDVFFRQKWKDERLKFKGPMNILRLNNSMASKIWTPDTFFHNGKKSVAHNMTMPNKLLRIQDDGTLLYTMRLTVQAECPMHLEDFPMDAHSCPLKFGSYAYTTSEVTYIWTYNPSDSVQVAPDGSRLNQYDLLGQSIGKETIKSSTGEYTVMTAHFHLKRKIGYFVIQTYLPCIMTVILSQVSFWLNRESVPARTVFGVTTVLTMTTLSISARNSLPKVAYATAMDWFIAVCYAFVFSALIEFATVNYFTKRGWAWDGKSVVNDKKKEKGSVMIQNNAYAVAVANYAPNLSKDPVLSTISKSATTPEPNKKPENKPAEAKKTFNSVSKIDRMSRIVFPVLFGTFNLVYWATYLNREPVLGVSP
T2 sequence (P63138 25-474 partner limits assumed): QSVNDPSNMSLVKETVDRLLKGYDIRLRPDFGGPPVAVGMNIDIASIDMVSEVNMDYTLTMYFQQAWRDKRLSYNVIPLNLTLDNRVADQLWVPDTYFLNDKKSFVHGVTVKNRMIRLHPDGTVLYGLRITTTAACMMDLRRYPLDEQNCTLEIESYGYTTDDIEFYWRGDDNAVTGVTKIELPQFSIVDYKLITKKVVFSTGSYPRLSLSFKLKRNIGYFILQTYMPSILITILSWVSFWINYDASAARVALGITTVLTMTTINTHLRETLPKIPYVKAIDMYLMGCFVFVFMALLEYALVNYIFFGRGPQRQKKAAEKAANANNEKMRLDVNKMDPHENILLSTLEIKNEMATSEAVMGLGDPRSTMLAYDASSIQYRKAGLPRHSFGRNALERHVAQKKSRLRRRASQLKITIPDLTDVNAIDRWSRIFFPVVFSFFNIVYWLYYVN
T2 sequence (P18508 39-466): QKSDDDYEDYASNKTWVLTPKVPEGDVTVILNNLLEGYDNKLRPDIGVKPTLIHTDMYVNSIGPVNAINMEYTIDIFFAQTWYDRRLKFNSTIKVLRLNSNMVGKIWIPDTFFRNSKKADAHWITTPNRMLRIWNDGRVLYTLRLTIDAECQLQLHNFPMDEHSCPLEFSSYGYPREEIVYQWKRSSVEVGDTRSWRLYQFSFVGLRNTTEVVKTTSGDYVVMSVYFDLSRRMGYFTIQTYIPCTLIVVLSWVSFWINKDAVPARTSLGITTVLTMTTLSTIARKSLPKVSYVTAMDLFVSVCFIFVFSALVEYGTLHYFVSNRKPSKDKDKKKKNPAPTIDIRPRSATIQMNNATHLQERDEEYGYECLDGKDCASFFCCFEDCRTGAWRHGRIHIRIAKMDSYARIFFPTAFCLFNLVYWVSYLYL
T1 sequence (P20236 29-493): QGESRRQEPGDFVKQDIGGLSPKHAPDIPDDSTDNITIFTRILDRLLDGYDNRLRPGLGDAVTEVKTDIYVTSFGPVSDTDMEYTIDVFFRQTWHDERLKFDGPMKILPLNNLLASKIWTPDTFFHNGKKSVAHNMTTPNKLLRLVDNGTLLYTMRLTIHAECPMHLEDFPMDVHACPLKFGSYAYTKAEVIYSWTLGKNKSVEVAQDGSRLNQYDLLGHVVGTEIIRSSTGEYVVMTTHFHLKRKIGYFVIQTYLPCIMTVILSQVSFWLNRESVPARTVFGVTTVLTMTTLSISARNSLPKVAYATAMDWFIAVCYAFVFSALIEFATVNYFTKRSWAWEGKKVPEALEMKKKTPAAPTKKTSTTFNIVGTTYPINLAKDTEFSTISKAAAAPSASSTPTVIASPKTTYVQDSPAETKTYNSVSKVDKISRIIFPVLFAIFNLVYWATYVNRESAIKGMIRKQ
T1 sequence (P63138 25-474 partner limits assumed): as the sequence (P63138 25-474 partner limits assumed) above
T1 sequence (P18508 39-466): as the sequence (P18508 39-466) above

CN(C)Cc1nc(-c2ncn3c2CN(C)C(=O)c2c(Cl)cccc2-3)no1 [compound of formula (II), 7-chloro-3-(5-dimethylaminomethyl-[1,2,4]oxadiazol-3-yl)-5-methyl-4,5-dihydro-imidazo[1,5-a][1,4]benzodiazepine-6-one]
EC50 [1, 4]: 84 ± 15 nM
Standardized Efficacy [1, 5]: 41 ± 8% (n = 5)
Efficacy [1, 6]: 171 ± 33% (n = 5)
EC50 [2, 4]: 62 ± 21 nM
Standardized Efficacy [2, 5]: 31 ± 6% (n = 5)
Efficacy [2, 6]: 90 ± 16% (n = 5)
half-life ([3]; in vivo, po): 3 to 4 h
effect of food on the extent of absorption ([3]; oral): little or no effect
pharmacokinetic profile on day 14 after repeat dosing compared to day 1 ([3]; oral repeat dosing): no significant differences
